From patent US20220331303A1, “USE OF AN OREXIN 2 RECEPTOR AGONIST FOR THE TREATMENT OF EXCESSIVE SLEEPINESS” (Takeda Pharmaceutical Company Limited, priority 2019, published 2022)
Entries after “also recorded” stand apart in the source; their conditions may differ. Read-outs that look alike come from different tables or passages of the source.

Test: Plasma PK of Compound A after a single 9-hour IV infusion in sleep-deprived healthy male subjects
Format: in vivo, human
Details: for concentration at 3 h: 3 h post infusion end
Protocol: This was a phase 1b, single-center, randomized, double-blind, double-dummy, placebo- and active-controlled, 4-period Williams design crossover study to evaluate the PK, PD, and safety of Compound A in sleep-deprived healthy volunteers. Compound A was administered as a 9-hour IV infusion.
Healthy adult male subjects aged 18 to 40 years, inclusive, who satisfied the inclusion and exclusion criteria were enrolled in the trial. On Day 1 of treatment period 1, eligible subjects were equally randomized to 4 treatment sequence groups (sequence 1 to 4) which defined the order of administration for Compound A LD, Compound A HD (both delivered as a 9-hour IV infusion), modafinil 300 mg, and placebo.
During the day before dosing on Day 1, participants were administered the KSS at scheduled timepoints. A practice MWT session was performed on Day 1 treatment period 1 (only once during the entire study) to familiarize subjects with the procedures. Study drug was administered in the clinic in the evening on Day 1 of each treatment period. Subjects underwent the MWT and KSS at specified timepoints after the start of the infusion. Subjects were required to stay awake between the MWT tests. Following completion of the IV infusion on Day 2, subjects underwent an additional MWT test. When the final MWT test and cognitive testing were completed, subjects were allowed to sleep (recovery sleep) for approximately 6 hours. PSG recording was collected during this time. Subjects were discharged from the unit after completion on Day 2 with continuing actigraphy upon discharge (to begin on Day −6 before the next treatment period). The interval between each subsequent treatment period was at least 7 days to ensure that the subject's circadian rhythm had returned to a normal cycle. Subject's vital signs, including BP, were monitored during the dosing and testing period. Blood samples for determination of Compound A plasma concentrations were collected at specified timepoints on Days 1 and 2 of each treatment period. Subjects completed the Columbia-Suicide Severity Rating Scale (C-SSRS) during screening, before study drug administration, and before discharge on Day 2 of each treatment period.
Plasma concentrations were tabulated, and descriptive statistics were calculated for each Compound A dose level and are listed in Tables 3-6 for Compound A. The mean plasma concentration versus time plots for Compound A are shown in FIG. 1.

[1] = 2.55-fold increase in dose (44 to 112 mg)

- Fold increase in AUClast [1]: 2.45 fold
- Fold increase in AUC∞ [1]: 2.46 fold
- Fold increase in Ceoi [1]: 2.45 fold
- Fold increase in Cmax [1]: 2.52 fold
- Mean plasma concentration as share of the observed maximum concentration (by 4 hours after start of infusion, 44 mg and 112 mg): more than 80%
- concentration at 1 h (male, human, plasma, iv, 44 mg, 44 mg 9-h IV infusion, 1 h post infusion start, read-out: Plasma concentration (GM)): 63.1 ng/mL
- concentration at 1 h (male, human, plasma, iv, 44 mg, 44 mg 9-h IV infusion, 1 h post infusion start, read-out: Plasma concentration (Mean)): 64.4 ng/mL
- concentration at 1 h (male, human, plasma, iv, 44 mg, 44 mg 9-h IV infusion, 1 h post infusion start, read-out: Plasma concentration (Median)): 65.5 ng/mL
- concentration at 2 h (male, human, plasma, iv, 44 mg, 44 mg 9-h IV infusion, 2 h post infusion start, read-out: Plasma concentration (GM)): 72.9 ng/mL
- concentration at 2 h (male, human, plasma, iv, 44 mg, 44 mg 9-h IV infusion, 2 h post infusion start, read-out: Plasma concentration (Mean)): 74 ng/mL
- concentration at 2 h (male, human, plasma, iv, 44 mg, 44 mg 9-h IV infusion, 2 h post infusion start, read-out: Plasma concentration (Median)): 72.6 ng/mL
- concentration at 4 h (male, human, plasma, iv, 44 mg, 44 mg 9-h IV infusion, 4 h post infusion start, read-out: Plasma concentration (GM)): 88.3 ng/mL
- concentration at 4 h (male, human, plasma, iv, 44 mg, 44 mg 9-h IV infusion, 4 h post infusion start, read-out: Plasma concentration (Mean)): 89.3 ng/mL
- concentration at 4 h (male, human, plasma, iv, 44 mg, 44 mg 9-h IV infusion, 4 h post infusion start, read-out: Plasma concentration (Median)): 88.2 ng/mL
- concentration at 6 h (male, human, plasma, iv, 44 mg, 44 mg 9-h IV infusion, 6 h post infusion start, read-out: Plasma concentration (GM)): 97.8 ng/mL
- concentration at 6 h (male, human, plasma, iv, 44 mg, 44 mg 9-h IV infusion, 6 h post infusion start, read-out: Plasma concentration (Mean)): 98.7 ng/mL
- concentration at 6 h (male, human, plasma, iv, 44 mg, 44 mg 9-h IV infusion, 6 h post infusion start, read-out: Plasma concentration (Median)): 97.4 ng/mL
- concentration at 9 h (male, human, plasma, iv, 44 mg, 44 mg 9-h IV infusion, 9 h post infusion start, read-out: Plasma concentration (GM)): 102 ng/mL
- concentration at 9 h (male, human, plasma, iv, 44 mg, 44 mg 9-h IV infusion, 9 h post infusion start, read-out: Plasma concentration (Mean)): 103 ng/mL
- concentration at 9 h (male, human, plasma, iv, 44 mg, 44 mg 9-h IV infusion, 9 h post infusion start, read-out: Plasma concentration (Median)): 101 ng/mL
- AUC(0-t) (male, human, plasma, iv, 44 mg, 44 mg [LD] single 9-hour IV infusion, read-out: AUClast (GM)): 933 ng·h/mL
- AUC(0-t) (male, human, plasma, iv, 44 mg, 44 mg [LD] single 9-hour IV infusion, read-out: AUClast (Mean)): 940 ng·h/mL
- AUC(0-t) (male, human, plasma, iv, 44 mg, 44 mg [LD] single 9-hour IV infusion, read-out: AUClast (Median)): 888 ng·h/mL
- AUC(0-inf) (male, human, plasma, iv, 44 mg, 44 mg [LD] single 9-hour IV infusion, read-out: AUC∞ (GM)): 955 ng·h/mL
- AUC(0-inf) (male, human, plasma, iv, 44 mg, 44 mg [LD] single 9-hour IV infusion, read-out: AUC∞ (Mean)): 964 ng·h/mL
- AUC(0-inf) (male, human, plasma, iv, 44 mg, 44 mg [LD] single 9-hour IV infusion, read-out: AUC∞ (Median)): 911 ng·h/mL
- clearance (male, human, plasma, iv, 44 mg, 44 mg [LD] single 9-hour IV infusion, read-out: CL (Mean) (converted)): 773 mL/min
- clearance (male, human, plasma, iv, 44 mg, 44 mg [LD] single 9-hour IV infusion, read-out: CL (Median) (converted)): 805 mL/min
- Cmax (male, human, plasma, iv, 44 mg, 44 mg [LD] single 9-hour IV infusion, read-out: Cmax (GM)): 106 ng/mL
- Cmax (male, human, plasma, iv, 44 mg, 44 mg [LD] single 9-hour IV infusion, read-out: Cmax (Mean)): 106 ng/mL
- Cmax (male, human, plasma, iv, 44 mg, 44 mg [LD] single 9-hour IV infusion, read-out: Cmax (Median)): 102 ng/mL
- Vd (male, human, plasma, iv, 44 mg, 44 mg [LD] single 9-hour IV infusion, read-out: Vss (Mean)): 107 L
- Vd (male, human, plasma, iv, 44 mg, 44 mg [LD] single 9-hour IV infusion, read-out: Vss (Median)): 99.2 L
- Vd (male, human, plasma, iv, 44 mg, 44 mg [LD] single 9-hour IV infusion, read-out: Vz (Mean)): 207 L
- Vd (male, human, plasma, iv, 44 mg, 44 mg [LD] single 9-hour IV infusion, read-out: Vz (Median)): 211 L
- Tmax (male, human, plasma, iv, 44 mg, 44 mg [LD] single 9-hour IV infusion, read-out: tmax (Mean)): 8.15 h
- Tmax (male, human, plasma, iv, 44 mg, 44 mg [LD] single 9-hour IV infusion, read-out: tmax (Median)): 9 h
- concentration at 0.17 h (male, human, plasma, iv, 112 mg, 112 mg 9-h IV infusion, 0.17 h post infusion end, read-out: Plasma concentration (GM)): 194 ng/mL
- concentration at 0.5 h (male, human, plasma, iv, 112 mg, 112 mg 9-h IV infusion, 0.5 h post infusion end, read-out: Plasma concentration (GM)): 122 ng/mL
- concentration at 1 h (male, human, plasma, iv, 112 mg, 112 mg 9-h IV infusion, 1 h post infusion end, read-out: Plasma concentration (GM)): 97.5 ng/mL
- concentration at 2 h (male, human, plasma, iv, 112 mg, 112 mg 9-h IV infusion, 2 h post infusion end, read-out: Plasma concentration (GM)): 56.7 ng/mL
- concentration at 3 h (male, human, plasma, iv, 112 mg, 112 mg 9-h IV infusion, read-out: Plasma concentration (GM)): 50.8 ng/mL
- concentration at 3 h (male, human, plasma, iv, 112 mg, 112 mg 9-h IV infusion, read-out: Plasma concentration (Median)): 54 ng/mL
- concentration at 4 h (male, human, plasma, iv, 112 mg, 112 mg 9-h IV infusion, 4 h post infusion end, read-out: Plasma concentration (GM)): 40.4 ng/mL
- concentration at 4 h (male, human, plasma, iv, 112 mg, 112 mg 9-h IV infusion, 4 h post infusion end, read-out: Plasma concentration (Median)): 44.7 ng/mL
- concentration at 6 h (male, human, plasma, iv, 112 mg, 112 mg 9-h IV infusion, 6 h post infusion end, read-out: Plasma concentration (GM)): 23.6 ng/mL
- concentration at 6 h (male, human, plasma, iv, 112 mg, 112 mg 9-h IV infusion, 6 h post infusion end, read-out: Plasma concentration (Median)): 23.4 ng/mL
- concentration at 9 h (male, human, plasma, iv, 112 mg, 112 mg 9-h IV infusion, 9 h post infusion end, read-out: Plasma concentration (GM)): 13 ng/mL
- concentration at 9 h (male, human, plasma, iv, 112 mg, 112 mg 9-h IV infusion, 9 h post infusion end, read-out: Plasma concentration (Median)): 11.9 ng/mL
- AUC(0-t) (male, human, plasma, iv, 112 mg, 112 mg [HD] single 9-hour IV infusion, read-out: AUClast (GM)): 2300 ng·h/mL
- AUC(0-t) (male, human, plasma, iv, 112 mg, 112 mg [HD] single 9-hour IV infusion, read-out: AUClast (Mean)): 2300 ng·h/mL
- AUC(0-t) (male, human, plasma, iv, 112 mg, 112 mg [HD] single 9-hour IV infusion, read-out: AUClast (Median)): 2300 ng·h/mL
- AUC(0-inf) (male, human, plasma, iv, 112 mg, 112 mg [HD] single 9-hour IV infusion, read-out: AUC∞ (GM)): 2360 ng·h/mL
- AUC(0-inf) (male, human, plasma, iv, 112 mg, 112 mg [HD] single 9-hour IV infusion, read-out: AUC∞ (Mean)): 2370 ng·h/mL
- AUC(0-inf) (male, human, plasma, iv, 112 mg, 112 mg [HD] single 9-hour IV infusion, read-out: AUC∞ (Median)): 2380 ng·h/mL
- clearance (male, human, plasma, iv, 112 mg, 112 mg [HD] single 9-hour IV infusion, read-out: CL (Mean) (converted)): 793 mL/min
- clearance (male, human, plasma, iv, 112 mg, 112 mg [HD] single 9-hour IV infusion, read-out: CL (Median) (converted)): 785 mL/min
- Cmax (male, human, plasma, iv, 112 mg, 112 mg [HD] single 9-hour IV infusion, read-out: Cmax (GM)): 266 ng/mL
- Cmax (male, human, plasma, iv, 112 mg, 112 mg [HD] single 9-hour IV infusion, read-out: Cmax (Mean)): 268 ng/mL
- Cmax (male, human, plasma, iv, 112 mg, 112 mg [HD] single 9-hour IV infusion, read-out: Cmax (Median)): 260 ng/mL
- Vd (male, human, plasma, iv, 112 mg, 112 mg [HD] single 9-hour IV infusion, read-out: Vss (Mean)): 112 L
- Vd (male, human, plasma, iv, 112 mg, 112 mg [HD] single 9-hour IV infusion, read-out: Vss (Median)): 112 L
- Vd (male, human, plasma, iv, 112 mg, 112 mg [HD] single 9-hour IV infusion, read-out: Vz (Mean)): 223 L
- Vd (male, human, plasma, iv, 112 mg, 112 mg [HD] single 9-hour IV infusion, read-out: Vz (Median)): 216 L
- Tmax (male, human, plasma, iv, 112 mg, 112 mg [HD] single 9-hour IV infusion, read-out: tmax (Mean)): 7.88 h
- Tmax (male, human, plasma, iv, 112 mg, 112 mg [HD] single 9-hour IV infusion, read-out: tmax (Median)): 9 h
- half-life (male, human, plasma, after end of 9-h IV infusion, biphasic decline, read-out: Mean terminal half-life (t1/2z) (converted)): ~3 h
Structure (SMILES): COC(=O)N1CCC[C@H](NS(C)(=O)=O)[C@@H]1CO[C@H]1CC[C@@H](c2ccccc2)CC1 [Compound A, methyl (2R,3S)-3-((methylsulfonyl)amino)-2-(((cis-4-phenylcyclohexyl)oxy)methyl)piperidine-1-carboxylate]
- Dose proportionality of systemic exposure (between 44 and 112 mg dose levels): approximately dose-proportionately; also recorded: approximately dose proportionately
